Here are results for 4 compounds from ChEMBL document CHEMBL3994622, “Design and synthesis of new RAF kinase-inhibiting antiproliferative quinoline derivatives. Part 2: Diarylurea derivatives” (Eur J Med Chem, 2017).

Type in all cases: functional
Test [1] concerns K562. Kind of test: Growth inhibition of human K562 cells assessed as cell growth at 0.01 uM incubated for 48 hrs by sulforhodamine B assay relative to control. The following applies: K562, 48 h, read-out: Activity.
Test [2] has as its system 786-0. Kind of test: Growth inhibition of human 786-0 cells assessed as cell growth at 0.01 uM incubated for 48 hrs by sulforhodamine B assay relative to control. Particulars: 786-0, 48 h, read-out: Activity. A general note: In SRB staining, fixed cells bind dye roughly in proportion to their protein.
The test system of test [3] is UO-31. The test is described as follows: Growth inhibition of human UO31 cells assessed as cell growth at 0.01 uM incubated for 48 hrs by sulforhodamine B assay relative to control. The following applies: UO-31, 48 h, read-out: Activity.
Another test relates to SR. The test is described as follows: Growth inhibition of human SR cells assessed as cell growth at 0.1 uM incubated for 48 hrs by sulforhodamine B assay relative to control. Particulars: read-out: Activity.
Test [4] deals with A549. The test is described as follows: Growth inhibition of human A549/ATCC cells assessed as cell growth at 0.1 uM incubated for 48 hrs by sulforhodamine B assay relative to control. Particulars: A549, 48 h, read-out: Activity.
In test [5] the test system is UO-31. The test is described as follows: Growth inhibition of human UO31 cells assessed as cell growth at 0.1 uM incubated for 48 hrs by sulforhodamine B assay relative to control. The following applies: UO-31, 48 h, read-out: Activity.
Test [6] has as its system NCI/ADR-RES. The test is described as follows: Growth inhibition of human NCI/ADR-RES cells assessed as cell growth at 1 uM incubated for 48 hrs by sulforhodamine B assay relative to control. The following applies: read-out: Activity.
In test [7] the test system is UO-31. Kind of test: Growth inhibition of human UO31 cells assessed as cell growth at 1 uM incubated for 48 hrs by sulforhodamine B assay relative to control. Particulars: UO-31, 48 h, read-out: Activity.
A further test relates to SF-268. Kind of test: Growth inhibition of human SF268 cells assessed as cell growth at 10 uM incubated for 48 hrs by sulforhodamine B assay relative to control. Particulars: SF-268, 48 h, read-out: Activity.
The test system of a further test is LOX IMVI. Kind of test: Growth inhibition of human LOXIMVI cells assessed as cell growth at 10 uM incubated for 48 hrs by sulforhodamine B assay relative to control. The following applies: read-out: Activity.
Test [8] deals with 786-0. Kind of test: Growth inhibition of human 786-0 cells assessed as cell growth at 10 uM incubated for 48 hrs by sulforhodamine B assay relative to control. Particulars: 786-0, 48 h, read-out: Activity.
A further test deals with HCT-116. The test is described as follows: Growth inhibition of human HCT116 cells assessed as cell growth at 100 uM incubated for 48 hrs by sulforhodamine B assay relative to control. Particulars: HCT-116, 48 h, read-out: Activity.
For a further test, the system named is SNB-75. The test is described as follows: Growth inhibition of human SNB75 cells assessed as cell growth at 100 uM incubated for 48 hrs by sulforhodamine B assay relative to control. Particulars: SNB-75, 48 h, read-out: Activity.
Test [9] has as its system NCI/ADR-RES. Kind of test: Growth inhibition of human NCI/ADR-RES cells assessed as cell growth at 100 uM incubated for 48 hrs by sulforhodamine B assay relative to control. The following applies: read-out: Activity.
The next test relates to ACHN. The test is described as follows: Growth inhibition of human ACHN cells assessed as cell growth at 100 uM incubated for 48 hrs by sulforhodamine B assay relative to control. Particulars: read-out: Activity.
A further test concerns SN12C. The test is described as follows: Growth inhibition of human SN12C cells assessed as cell growth at 100 uM incubated for 48 hrs by sulforhodamine B assay relative to control. The following applies: read-out: Activity.
For test [10], the system named is A549. Kind of test: Growth inhibition of human A549/ATCC cells assessed as cell growth at 0.003 uM incubated for 48 hrs by sulforhodamine B assay relative to control. Particulars: A549, 48 h, read-out: Activity.
Another test relates to UACC-62. Kind of test: Growth inhibition of human UACC62 cells assessed as cell growth at 0.003 uM incubated for 48 hrs by sulforhodamine B assay relative to control. The following applies: UACC-62, 48 h, read-out: Activity.
In the next test the test system is TK-10. The test is described as follows: Growth inhibition of human TK10 cells assessed as cell growth at 0.003 uM incubated for 48 hrs by sulforhodamine B assay relative to control. Particulars: TK-10, 48 h, read-out: Activity.
Another test has as its system MCF7. The test is described as follows: Growth inhibition of human MCF7 cells assessed as cell growth at 0.003 uM incubated for 48 hrs by sulforhodamine B assay relative to control. Particulars: MCF7, 48 h, read-out: Activity.
In another test the test system is OVCAR-8. The test is described as follows: Growth inhibition of human OVCAR8 cells assessed as cell growth at 0.03 uM incubated for 48 hrs by sulforhodamine B assay relative to control. The following applies: OVCAR-8, 48 h, read-out: Activity.
Test [11] deals with NCI/ADR-RES. The test is described as follows: Growth inhibition of human NCI/ADR-RES cells assessed as cell growth at 0.03 uM incubated for 48 hrs by sulforhodamine B assay relative to control. Particulars: read-out: Activity.
For test [12], the system named is NCI-H226. The test is described as follows: Growth inhibition of human NCI-H226 cells assessed as cell growth at 0.3 uM incubated for 48 hrs by sulforhodamine B assay relative to control. The following applies: NCI-H226, 48 h, read-out: Activity.
For a further test, the system named is NCI-H460. Kind of test: Growth inhibition of human NCI-H460 cells assessed as cell growth at 0.3 uM incubated for 48 hrs by sulforhodamine B assay relative to control. The following applies: NCI-H460, 48 h, read-out: Activity.
The subject of a further test is COLO 205. Kind of test: Growth inhibition of human COLO205 cells assessed as cell growth at 0.3 uM incubated for 48 hrs by sulforhodamine B assay relative to control. Particulars: COLO 205, 48 h, read-out: Activity.
A further test deals with SNB-19. The test is described as follows: Growth inhibition of human SNB19 cells assessed as cell growth at 0.3 uM incubated for 48 hrs by sulforhodamine B assay relative to control. Particulars: SNB-19, 48 h, read-out: Activity.
The subject of the next test is OVCAR-4. The test is described as follows: Growth inhibition of human OVCAR4 cells assessed as cell growth at 0.3 uM incubated for 48 hrs by sulforhodamine B assay relative to control. Particulars: OVCAR-4, 48 h, read-out: Activity.
In test [13] the test system is K562. The test is described as follows: Growth inhibition of human K562 cells assessed as cell growth at 3 uM incubated for 48 hrs by sulforhodamine B assay relative to control. The following applies: K562, 48 h, read-out: Activity.
For test [14], the system named is NCI-H226. The test is described as follows: Growth inhibition of human NCI-H226 cells assessed as cell growth at 3 uM incubated for 48 hrs by sulforhodamine B assay relative to control. The following applies: NCI-H226, 48 h, read-out: Activity.
Another test relates to SK-MEL-2. Kind of test: Growth inhibition of human SK-MEL-2 cells assessed as cell growth at 3 uM incubated for 48 hrs by sulforhodamine B assay relative to control. Particulars: SK-MEL-2, 48 h, read-out: Activity.
Another test has as its system IGROV-1. The test is described as follows: Growth inhibition of human IGROV1 cells assessed as cell growth at 3 uM incubated for 48 hrs by sulforhodamine B assay relative to control. The following applies: IGROV-1, 48 h, read-out: Activity.
The test system of the next test is DU-145. The test is described as follows: Growth inhibition of human DU145 cells assessed as cell growth at 3 uM incubated for 48 hrs by sulforhodamine B assay relative to control. Particulars: DU-145, 48 h, read-out: Activity.
The next test deals with MDA-MB-231. The test is described as follows: Growth inhibition of human MDA-MB-231 cells assessed as cell growth at 3 uM incubated for 48 hrs by sulforhodamine B assay relative to control. Particulars: MDA-MB-231, 48 h, read-out: Activity.
A further test has as its system SF-295. The test is described as follows: Growth inhibition of human SF295 cells assessed as cell growth at 30 uM incubated for 48 hrs by sulforhodamine B assay relative to control. The following applies: SF-295, 48 h, read-out: Activity.
A further test relates to OVCAR-5. Kind of test: Growth inhibition of human OVCAR5 cells assessed as cell growth at 30 uM incubated for 48 hrs by sulforhodamine B assay relative to control. The following applies: OVCAR-5, 48 h, read-out: Activity.

SMILES strings stand for the structures.

In the case of `COc1cc2cc(Oc3ccc(NC(=O)Nc4cc(C(F)(F)F)cc(C(F)(F)F)c4)cc3)c(C)nc2cc1OC`, the growth at 0.01 µM was found to be 110% in the test with K562 [1], 89% in the test on 786-0 [2] and 82% in the test on UO-31 [3]. Moreover, the growth at 0.1 µM came out at 97% with SR, 99% in the test with A549 [4] and 73% in the test with UO-31 [5]. In addition, the growth at 1 µM came out at 62% in the test with NCI/ADR-RES [6] and 19% with UO-31 [7]. Moreover, the results for the growth at 10 µM in the test with SF-268, in the test on LOX IMVI and in the test on 786-0 [8] were -61%, -84% and -90%, respectively. The growth at 100 µM with HCT-116 is -87%; in the test with SNB-75, -44%; in the test on NCI/ADR-RES [9], -45%; with ACHN, -89%; with SN12C it was -74%.

Take `Cc1nc2cc(O)c(O)cc2cc1Oc1ccc(NC(=O)Nc2ccc(Cl)c(Cl)c2)cc1`: the growth at 0.003 µM was found to be 100% with A549 [10], 96% in the test with UACC-62, 98% with TK-10 and 94% with MCF7. The growth at 0.03 µM with OVCAR-8 amounted to 93%; with NCI/ADR-RES [11], 97%. Also, the growth at 0.3 µM is 97% in the test with NCI-H226 [12]; 99% with NCI-H460; 109% in the test on COLO 205; 117% with SNB-19; 94% in the test on OVCAR-4. For the same compound, the growth at 3 µM turned out to be 76% with K562 [13]; 102% in the test with NCI-H226 [14]; 107% in the test on SK-MEL-2; 95% with IGROV-1; 82% in the test on DU-145; 41% in the test with MDA-MB-231. Besides, the growth at 30 µM is 9% with SF-295 and -6% in the test with OVCAR-5.

With `COc1cc2cc(Oc3ccc(NC(=O)Nc4ccc(Cl)c(Cl)c4)cc3)c(C)nc2cc1OC`, the results for the growth at 0.01 µM in the test on K562 [1], in the test with 786-0 [2] and with UO-31 [3] were 108%, 83% and 96%, respectively. Further, the figures for the growth at 0.1 µM with SR, in the test on A549 [4] and in the test with UO-31 [5] were 108%, 94% and 101%, respectively. In addition, the figures for the growth at 1 µM in the test with NCI/ADR-RES [6] and in the test with UO-31 [7] were 76% and 100%, respectively. For the same compound, the growth at 10 µM with SF-268 was determined as 44%; in the test with LOX IMVI, 20%; in the test on 786-0 [8], 22%. Also, the growth at 100 µM in the test on HCT-116 is -100%; in the test on SNB-75 it was -59%; in the test on NCI/ADR-RES [9] it was -46%; in the test on ACHN, -61%; with SN12C, -41%.

Regarding `COc1cc2cc(Oc3ccc(NC(=O)Nc4ccc(Cl)c(C(F)(F)F)c4)cc3)c(C)nc2cc1OC`, the growth at 0.003 µM in the test on A549 [10] was found to be 94%; with UACC-62 it was 96%; in the test with TK-10, 94%; in the test with MCF7, 98%. Moreover, the results for the growth at 0.03 µM with OVCAR-8 and in the test on NCI/ADR-RES [11] were 94% and 98%, respectively. Further, the growth at 0.3 µM in the test with NCI-H226 [12] was 106%; with NCI-H460, 100%; in the test with COLO 205, 102%; in the test on SNB-19 it was 96%; in the test with OVCAR-4, 94%. In addition, the growth at 3 µM in the test on K562 [13] is 12%; in the test on NCI-H226 [14] it was 11%; in the test on SK-MEL-2, -29%; in the test with IGROV-1, 39%; in the test on DU-145, 17%; in the test on MDA-MB-231, -29%. Also, the growth at 30 µM in the test on SF-295 was -59%; in the test on OVCAR-5, -81%.
